Reference: a melting point compilation (Tetko et al.; mined from patent text by program, amines drawn as free bases though some values may be those of a salt)

Row | melting point [°C] | Structure (SMILES)
1 | 89 to 90 | Cc1ccc(-c2nc(CCl)cs2)s1
2 | 125 to 126 | N#CCCCSc1nccc(NC(=S)NCC(F)(F)F)n1
3 | 245 to 246 | Cc1cc(-c2ccc(Cl)cc2)sc1C(=O)O
4 | 160 to 161 | O=C(O)CC1CCCc2c1n(Cc1ccc(Cl)cc1Cl)c1c(F)cc(F)cc21 (stereo not given)
5 | 175 to 176 | Cc1nn(-c2ccccn2)c2nc3cc(F)c(F)cc3c(Cl)c12
6 | 126 to 129 | C[C@]12CCC(=O)C=C1CC[C@@H]2c1cn[nH]n1
7 | 160 to 165 | Cn1cc(C2=C(c3c4n(c5ccccc35)CC(CN)CC4)C(=O)NC2=O)c2ccccc21 (stereo not given)
8 | 232 to 233 | CC(=O)NC[C@H]1CN(c2ccc3c(c2)CCSCC3=O)C(=O)O1
9 | 274 to 275 | O=C(O)c1cnc2occc2c1
10 | 128 to 130 | CN(C)Cc1cc2ccc(-c3nnc(CSCCOc4ccccc4)o3)cc2[nH]1
11 | 153 to 154 | COC(=O)c1nc(-c2ccc(Cl)cc2)cc(N(C)C)c1N
12 | 262 | CCOC(=O)c1c(N2CCN(C(=O)c3cccs3)CC2)c2cc(F)cnc2n(CC(=O)c2ccccc2)c1=O
13 | 171 to 172 | CC1(C)N=C(n2ccc(O)cc2=O)c2cc(Br)ccc2O1
14 | 234 to 236 | CC(C)c1n[nH]c2c(NCc3ccc(O)cc3)ncnc12
15 | 182 to 183 | Cn1nc2c(c1S(C)(=O)=O)CCCN2c1ccc(Cl)cc1Cl
16 | 149 to 150 | CCCCOC(=O)/C=C/c1ccc2c(=O)n(CC(C)C)c(CNC(=O)OC(C)(C)C)c(-c3ccc(Cl)cc3)c2c1
17 | 71 to 74 | CCOC(=O)c1ccc(N)c(I)c1
18 | 129 to 135 | CN(C)CC(=O)N(C)c1ccc(OCC(=O)N[C@@H](CC(N)=O)C(=O)N[C@@H](Cc2ccccc2)[C@H](O)C(=O)N2CCC[C@H]2C(=O)NC(C)(C)C)cc1
19 | 198 to 201 | CCCCOc1ccc(S(C)(=O)=O)cc1C(=O)Nc1c(C(N)=O)nn(C2CN(C(C)C)C2)c1CC
20 | 215 to 216 | COc1ccccc1C1(c2ccc(N(C)C)cc2)OC(=O)c2cc(N(C)C)ccc21 (stereo not given)
21 | 98 to 99 | COC(=O)c1cncc(-c2ccc(OC)c(N)c2)c1
22 | 164 | O=[N+]([O-])c1cc(Cl)c(Oc2ccccc2)c(Cl)c1Oc1ccccc1
23 | 128 to 130 | COc1ccc(C)c(N2CCN(C(=O)Nc3cc4ccccc4nc3OC)CC2)c1
24 | 156 to 157 | COc1ccc(-c2c3cccc(C(F)(F)F)c3nn2CC2CCCCC2)c(OC)c1

Row | melting point [°C] | Structure (SMILES)
25 | 150 to 152 | Clc1cccc2c1CNC(=Nc1ccccc1)CS2
26 | 110 | CC(C)(C)C(O)(C=Cc1ccc(C2OCCO2)cc1)Cn1cncn1 (stereo not given)
27 | 169 to 170 | O=C(NC1CCCC1)c1ccc2nonc2c1
28 | 245 to 246 | CC(=O)N1CCN(c2ccc(Nc3nccc(-c4sc(Nc5ccccc5)nc4C)n3)cc2)CC1
29 | 66 to 68 | OCCC(CCO)c1ccncc1
30 | 203 to 205 | Cc1[nH]cnc1C(=O)OCc1ccccc1
31 | 140 | C[C@@H](Nc1ncnc2[nH]c(-c3ccc(CNC(=O)CCN4CCCCC4)cc3)cc12)c1ccccc1
32 | 121 to 122 | CC(C)OCCNC(=O)c1n[nH]cc1NC(=O)c1ccccc1
33 | 98.2 | CCOc1ccc(-c2cn(C)c(SCC)n2)cc1
34 | 177 to 179 | CCCCOc1ccc(NC(=O)c2cnc(C(=O)NCC(=O)OCC)c(Cl)c2)cc1
35 | 146 to 148 | COc1ccc(CNc2cc(Cl)ncc2C=O)cc1Cl
36 | 88 to 90 | CC(=O)c1ccc(-c2ccc(F)cc2)c([N+](=O)[O-])c1
37 | 193 | CCOC(=O)c1ccc(-c2ccc(OCCO)c(-c3ccc(N4CCCC4)c(C(C)(C)C)c3)c2)cc1
38 | 111 to 113 | CC(C)(c1ccc(Oc2cccc([N+](=O)[O-])c2)cc1)c1ccc(Oc2cccc([N+](=O)[O-])c2)cc1
39 | 86.5 to 87.5 | O=C1CC2(CCC2)C(CC(Cl)(Cl)Cl)O1 (stereo not given)
40 | 117 to 119 | COCC1(O)CCN(c2c(F)cc(N3C[C@H](CO)OC3=O)cc2F)CC1
41 | 185 to 186 | Cn1cc(-c2cccc(N3Cc4cc(C(C)(C)C)ccc4C3=O)c2CO)cc(Nc2ccc(C3CNC3)cn2)c1=O
42 | > 300 | Nc1cc(OC2CCNCC2)c(F)c2c1c(=O)c(C(=O)O)cn2C1CC1
43 | 175 to 178 | CCCc1c(OCCCCCOc2ccc3ccc(OCC(=O)O)cc3c2CCC(=O)O)ccc2c1OCCC2=O
44 | 62 to 63 | COC(=O)c1nc(OC)n(C)c1C(=O)OC
45 | 113 to 116 | Clc1ccc2c(NCCCN3CCCCC3)ccnc2c1
46 | 105 to 108 | CCOC(=O)N(c1cccc(C(F)(F)F)c1)c1ccccc1N
47 | 33 | CC(C)(C)[Si](C)(C)Oc1ccc(-c2ccc(C3CCC(c4c(F)cccc4F)=N3)cc2)cc1 (stereo not given)
48 | 95 to 100 | Cc1noc(NS(=O)(=O)c2ccccc2-c2ccc(-c3ncco3)cc2CN2OCC(C)(C)C2=O)c1C

Row | melting point [°C] | Structure (SMILES)
49 | 88 | CC(=O)c1cccc2ccc(CC#N)cc12
50 | 137 to 138 | CCn1c2cc(Cl)ccc2c2oc(C(=O)Cl)cc21
51 | 129 to 130 | Cc1ccc(N(C)N=C(N)C(N)=O)cc1OCC(F)(F)C(F)(F)F
52 | 96 to 97 | CCC1(CCOC2CCCCO2)C(=O)N2CC=CC(C(=O)OC)N2C1=O (stereo not given)
53 | 60 to 61 | CCC(=O)Oc1ccc(-c2nn(C3CCCC3)c3c(F)cccc23)cc1
54 | 195 to 196 | Cc1nn(C(C)(C)C)c(N)c1C(N)=O
55 | 108 to 110 | COC(=O)c1cc([N+](=O)[O-])ccc1ON=C(C)c1ccccc1
56 | 191 to 192 | Cn1c(=O)c(C(=O)C2=C(O)CCCC2=O)nc2ccccc21
57 | 199 to 201 | CCCNC(=O)Nc1ccc2oc([N+](=O)[O-])c(-c3ccccc3)c2c1
58 | 175 to 176 | COc1ccc(-c2cc(C)c(C(=O)O)c(C)c2)cc1OC
59 | 127 to 128 | Cc1ccc(N(C)c2ccco2)cc1O
60 | > 310 | CC(=O)Nc1ncc2c(n1)-c1sc(NC(C)=O)nc1CC2
61 | 124 to 126 | Cn1cc(C2=C(c3c4n(c5ccccc35)CCC(CNC(=O)OC(C)(C)C)C4)C(=O)OC2=O)c2ccccc21 (stereo not given)
62 | 177 to 178 | CCOC(=O)c1cc(=O)c2c(OCCn3c(=O)sc4ccc(Cl)cc43)cccc2o1
63 | 83 to 85 | OC(CNCCCn1cnc2ccccc21)c1ccc(OCc2ccccc2)cc1 (stereo not given)
64 | 153 to 156 | COc1ccc([C@@H]2Sc3ccccc3N(CCN(C)C)C(=O)[C@@H]2OC(=O)c2ccc([N+](=O)[O-])cc2Cl)cc1
65 | 208 to 213 | CCCCN1C(N)=NS(=O)(=O)N=C1Oc1cccc(C)c1
66 | 157 to 158 | Cc1ccc(CSc2nc3cc4c(cc3[nH]2)CCC4)nc1
67 | > 300 | O=c1[nH]c2cc([N+](=O)[O-])ccc2cc1P(=O)(O)O
68 | 179 to 180 | CCOC(=O)/C=C(\C)c1ccc(C2COc3c(C)c(C)c(NC(=O)CC(C)(C)C)c(C)c32)cc1 (stereo not given)
69 | 149 | Cc1ccc2c(c1)[nH]c(=O)n2CCCN1CCC(C(=O)c2ccc(F)cc2)CC1
70 | 57 | CCOC(=O)CN(C)C=C(Cl)C#N
71 | 195 | Nc1ccc2c(c1-c1n[nH]cc1Cl)OC(F)(F)O2
72 | 48 to 50 | CCCCOc1ccc2cc(Br)ccc2c1

Row | melting point [°C] | Structure (SMILES)
73 | 121 to 123 | COC(=O)CCC(=O)Nc1cccc(COc2ccc(C(C)=O)c(O)c2)c1
74 | 156 to 157 | CCCCCCCCCCCC#Cc1ccc(C=CC(=O)O)cc1
75 | 136 to 138 | Cc1ccc2nc(-c3ccc(Cl)cc3)cc(Cl)c2c1
76 | 63 to 65 | CCCCn1c(=O)n(CCC)c(=O)c2c3n(nc21)CCCCN3C
77 | 281 | NS(=O)(=O)c1ccc(-c2cc(-c3nc(-c4ccc(F)c(F)c4)cc(C(F)(F)F)n3)ccn2)s1
78 | 197 to 199 | Cc1cc(O)c(N)c([N+](=O)[O-])c1
79 | 142 to 145 | CC(C)c1nc(COC(=O)N[C@H](C(=O)N[C@@H](Cc2ccccc2)C[C@H](O)[C@H](Cc2ccccc2)NC(=O)OCc2cncs2)C(C)C)cs1
80 | 188 to 190 | CC1N=C(NN2CCCCC2)NN=C1c1ccccc1 (stereo not given)
81 | 86 to 89 | Cc1ccc(/C=C(/C(=O)OC(C)(C)C)C(=O)c2ccccc2O)cc1
82 | 248 | CCCC(=O)Nc1n[nH]c2c([N+](=O)[O-])c(Br)ccc12
83 | 118 to 120 | CCSCCOC(=O)C(Br)=Cc1cc(-n2c(=O)cc(C(F)(F)F)n(C)c2=O)ccc1Cl
84 | 87 to 88 | CC(=O)N1CCCCc2ccc(/C=C/CN(C)C)cc21
85 | 237 | C[C@@H]1CN(c2ccc(-c3[nH]nc4c3C(=O)c3c(NC(=O)NN5CCOCC5)cccc3-4)cc2)C[C@H](C)N1
86 | 88 | CC12CCC(=O)C=C1CCC(=Cc1ccccc1)C2=O (stereo not given)
87 | 46 to 50 | O=[N+]([O-])c1ccc(C=Cc2ccccc2)cc1
88 | 196 | O=C(c1ccc(Cl)cc1)c1cc(-c2cccnc2)c(N2CCOCC2)s1
89 | 179 to 181 | Cc1nnc(-c2ccc3c(=O)n(CC(C)C)c(CN)c(-c4ccccc4)c3c2)o1
90 | 149 to 150 | c1ccc2c(c1)nc1c3c(onc32)CCC1
91 | 61 to 64 | CCCCCCNC(=O)C1CCCN1 (stereo not given)
92 | 71 to 73 | CS(=O)(=O)NC(=O)CCCC[C@H]1CCSS1
93 | 170 to 172 | CC(=O)c1ccc2occ(C#N)c(=O)c2c1
94 | 236 to 237 | CCNc1cc(C(=O)O)cc(S(N)(=O)=O)c1Oc1ccccc1
95 | 111 to 115 | C=C(C)C(=O)NCCCCCC(=O)Nc1cc(Cl)c(C)c(Cl)c1O
96 | 151 to 152 | COc1ccc(C(=O)Nc2ccc(F)cc2)cc1Nc1ccccc1

Row | Structure (SMILES) | melting point [°C]
97 | CCc1cccc(NC(=O)NC2N=C(c3ccccc3F)c3ccccc3N(CC(=O)N3CC4CCC(CC4)C3)C2=O)c1 (racemic) | 185 to 192
98 | Cc1nc2cc(C(=O)NC3CC3)c(NC(=O)c3cc(C(F)(F)F)nn3-c3ncccc3Cl)c(Cl)c2nc1C | 255 to 258
99 | COC(=C[N+](=O)[O-])NCc1cccnc1 | 129 to 130
100 | CC1(O)CCC2C3CCC4=CC(=O)CCC4C3C(=CF)CC21C (stereo not given) | 127 to 131
